The target of experiment [1] is T1, Serine/threonine-protein kinase Nek2 (Homo sapiens) (UniProt P51955).
T1 sequence (whole entry): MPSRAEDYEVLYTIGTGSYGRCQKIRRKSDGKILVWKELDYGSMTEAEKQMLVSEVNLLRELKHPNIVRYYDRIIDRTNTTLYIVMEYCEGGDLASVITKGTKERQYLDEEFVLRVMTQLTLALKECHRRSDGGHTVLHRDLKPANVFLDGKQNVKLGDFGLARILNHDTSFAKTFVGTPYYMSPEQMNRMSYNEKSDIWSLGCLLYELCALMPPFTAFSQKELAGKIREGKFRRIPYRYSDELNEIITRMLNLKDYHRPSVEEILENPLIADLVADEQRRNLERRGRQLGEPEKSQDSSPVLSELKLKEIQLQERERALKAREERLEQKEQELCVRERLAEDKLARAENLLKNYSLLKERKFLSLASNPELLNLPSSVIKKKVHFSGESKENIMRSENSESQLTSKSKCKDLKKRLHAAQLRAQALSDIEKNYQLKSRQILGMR
Description: Inhibition of NEK2 (unknown origin) assessed as residual activity at 1000 nM by KINOMEscan analysis relative to control.

Experiment [2] has as its target Serine/threonine-protein kinase WNK1 (Homo sapiens) (UniProt Q9H4A3). Description: Inhibition of WNK1 (unknown origin) assessed as residual activity at 1000 nM by KINOMEscan analysis relative to control.
In experiment [3] the target is Proto-oncogene tyrosine-protein kinase Src (Homo sapiens) (UniProt P12931). Description: Inhibition of SRC (unknown origin) assessed as residual activity at 1000 nM by KINOMEscan analysis relative to control.
For experiment [4], the target named is Calcium/calmodulin-dependent protein kinase type 1G (Homo sapiens) (UniProt Q96NX5). Description: Inhibition of CAMK1G (unknown origin) assessed as residual activity at 1000 nM by KINOMEscan analysis relative to control.
The test system of experiment [5] is ALK tyrosine kinase receptor (Homo sapiens), Q9UM73 [L1196M]. Description: Inhibition of ALK L1196M mutant (unknown origin) assessed as residual activity at 1000 nM by KINOMEscan analysis relative to control.
The target in experiment [6] is Ribosomal protein S6 kinase alpha-6 (Homo sapiens) (UniProt Q9UK32). As to the kind of experiment: Inhibition of N-terminal RSK4 […] domain 1 (unknown origin) assessed as residual activity at 1000 nM by KINOMEscan analysis relative to control.
Experiment [7] has as its target T2, Mitogen-activated protein kinase kinase kinase 13 (Homo sapiens) (UniProt O43283).
T2 sequence (whole entry): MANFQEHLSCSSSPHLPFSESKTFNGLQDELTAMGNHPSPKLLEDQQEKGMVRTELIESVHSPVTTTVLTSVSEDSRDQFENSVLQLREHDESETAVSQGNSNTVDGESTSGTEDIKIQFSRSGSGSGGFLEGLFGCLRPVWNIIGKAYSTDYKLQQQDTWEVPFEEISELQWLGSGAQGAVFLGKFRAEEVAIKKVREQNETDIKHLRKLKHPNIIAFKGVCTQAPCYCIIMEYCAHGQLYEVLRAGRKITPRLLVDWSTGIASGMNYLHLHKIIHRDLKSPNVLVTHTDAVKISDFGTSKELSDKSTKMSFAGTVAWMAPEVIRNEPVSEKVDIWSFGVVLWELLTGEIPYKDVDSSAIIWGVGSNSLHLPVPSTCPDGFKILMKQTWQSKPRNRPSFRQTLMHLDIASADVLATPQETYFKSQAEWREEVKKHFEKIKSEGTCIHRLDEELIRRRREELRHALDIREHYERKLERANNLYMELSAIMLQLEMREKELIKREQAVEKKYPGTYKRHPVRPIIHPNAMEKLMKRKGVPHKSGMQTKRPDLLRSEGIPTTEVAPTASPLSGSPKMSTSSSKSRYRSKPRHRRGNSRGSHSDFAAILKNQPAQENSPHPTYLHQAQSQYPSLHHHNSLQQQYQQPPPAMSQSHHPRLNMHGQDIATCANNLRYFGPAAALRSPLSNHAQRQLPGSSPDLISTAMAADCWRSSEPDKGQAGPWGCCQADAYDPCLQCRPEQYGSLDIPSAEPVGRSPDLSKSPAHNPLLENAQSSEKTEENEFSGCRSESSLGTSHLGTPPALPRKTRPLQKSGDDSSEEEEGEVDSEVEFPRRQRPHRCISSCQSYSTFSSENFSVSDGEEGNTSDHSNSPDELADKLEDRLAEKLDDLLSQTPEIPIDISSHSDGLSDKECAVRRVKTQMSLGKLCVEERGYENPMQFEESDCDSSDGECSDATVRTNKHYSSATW
As to the kind of experiment: Inhibition of LZK (unknown origin) assessed as residual activity at 1000 nM by KINOMEscan analysis relative to control.

In experiment [8] the target is Ribosomal protein S6 kinase beta-1 (Homo sapiens) (UniProt P23443). Description: Inhibition of S6K1 (unknown origin) assessed as residual activity at 1000 nM by KINOMEscan analysis relative to control.
The target in experiment [9] is T3, Dual specificity tyrosine-phosphorylation-regulated kinase 2 (Homo sapiens) (UniProt Q92630).
T3 sequence (whole entry): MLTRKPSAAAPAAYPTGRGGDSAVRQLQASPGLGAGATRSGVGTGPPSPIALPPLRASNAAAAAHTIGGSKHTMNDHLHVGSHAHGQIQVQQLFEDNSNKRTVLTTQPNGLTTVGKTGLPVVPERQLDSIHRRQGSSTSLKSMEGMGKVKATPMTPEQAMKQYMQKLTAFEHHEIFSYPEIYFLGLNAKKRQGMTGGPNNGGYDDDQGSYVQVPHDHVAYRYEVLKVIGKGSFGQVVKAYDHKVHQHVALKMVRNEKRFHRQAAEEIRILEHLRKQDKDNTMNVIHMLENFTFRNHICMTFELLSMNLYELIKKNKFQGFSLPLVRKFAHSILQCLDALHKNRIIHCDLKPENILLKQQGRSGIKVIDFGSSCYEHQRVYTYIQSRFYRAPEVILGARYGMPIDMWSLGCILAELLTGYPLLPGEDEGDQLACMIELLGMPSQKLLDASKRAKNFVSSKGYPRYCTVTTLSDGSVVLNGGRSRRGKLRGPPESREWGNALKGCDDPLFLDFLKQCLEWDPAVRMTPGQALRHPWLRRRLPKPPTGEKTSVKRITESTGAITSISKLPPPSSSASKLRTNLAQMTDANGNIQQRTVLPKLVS
As to the kind of experiment: Inhibition of DYRK2 (unknown origin) assessed as residual activity at 1000 nM by KINOMEscan analysis relative to control.

Sequence of Ribosomal protein S6 kinase alpha-6 (Homo sapiens) (Q9UK32 whole entry): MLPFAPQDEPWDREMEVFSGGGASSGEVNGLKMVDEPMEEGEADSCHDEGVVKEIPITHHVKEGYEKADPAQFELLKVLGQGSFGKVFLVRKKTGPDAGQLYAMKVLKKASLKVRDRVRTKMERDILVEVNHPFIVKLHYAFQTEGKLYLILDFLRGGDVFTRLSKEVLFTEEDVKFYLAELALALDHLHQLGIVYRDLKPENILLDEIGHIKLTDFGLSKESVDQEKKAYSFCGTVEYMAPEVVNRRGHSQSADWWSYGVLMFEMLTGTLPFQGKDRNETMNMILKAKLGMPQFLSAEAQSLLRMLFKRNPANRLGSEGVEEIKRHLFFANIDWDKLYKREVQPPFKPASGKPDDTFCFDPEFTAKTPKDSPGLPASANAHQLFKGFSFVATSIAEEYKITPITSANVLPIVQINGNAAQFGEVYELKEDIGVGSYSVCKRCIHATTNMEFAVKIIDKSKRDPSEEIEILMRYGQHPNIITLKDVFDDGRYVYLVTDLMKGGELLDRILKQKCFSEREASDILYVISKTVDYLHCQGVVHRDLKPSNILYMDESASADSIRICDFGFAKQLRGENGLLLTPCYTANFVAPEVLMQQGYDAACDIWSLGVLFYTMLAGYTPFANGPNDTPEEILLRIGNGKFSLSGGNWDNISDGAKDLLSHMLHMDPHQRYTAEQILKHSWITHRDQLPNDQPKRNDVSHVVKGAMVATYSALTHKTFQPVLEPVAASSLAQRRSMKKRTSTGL
Sequence of Serine/threonine-protein kinase WNK1 (Homo sapiens) (Q9H4A3 whole entry, looked up): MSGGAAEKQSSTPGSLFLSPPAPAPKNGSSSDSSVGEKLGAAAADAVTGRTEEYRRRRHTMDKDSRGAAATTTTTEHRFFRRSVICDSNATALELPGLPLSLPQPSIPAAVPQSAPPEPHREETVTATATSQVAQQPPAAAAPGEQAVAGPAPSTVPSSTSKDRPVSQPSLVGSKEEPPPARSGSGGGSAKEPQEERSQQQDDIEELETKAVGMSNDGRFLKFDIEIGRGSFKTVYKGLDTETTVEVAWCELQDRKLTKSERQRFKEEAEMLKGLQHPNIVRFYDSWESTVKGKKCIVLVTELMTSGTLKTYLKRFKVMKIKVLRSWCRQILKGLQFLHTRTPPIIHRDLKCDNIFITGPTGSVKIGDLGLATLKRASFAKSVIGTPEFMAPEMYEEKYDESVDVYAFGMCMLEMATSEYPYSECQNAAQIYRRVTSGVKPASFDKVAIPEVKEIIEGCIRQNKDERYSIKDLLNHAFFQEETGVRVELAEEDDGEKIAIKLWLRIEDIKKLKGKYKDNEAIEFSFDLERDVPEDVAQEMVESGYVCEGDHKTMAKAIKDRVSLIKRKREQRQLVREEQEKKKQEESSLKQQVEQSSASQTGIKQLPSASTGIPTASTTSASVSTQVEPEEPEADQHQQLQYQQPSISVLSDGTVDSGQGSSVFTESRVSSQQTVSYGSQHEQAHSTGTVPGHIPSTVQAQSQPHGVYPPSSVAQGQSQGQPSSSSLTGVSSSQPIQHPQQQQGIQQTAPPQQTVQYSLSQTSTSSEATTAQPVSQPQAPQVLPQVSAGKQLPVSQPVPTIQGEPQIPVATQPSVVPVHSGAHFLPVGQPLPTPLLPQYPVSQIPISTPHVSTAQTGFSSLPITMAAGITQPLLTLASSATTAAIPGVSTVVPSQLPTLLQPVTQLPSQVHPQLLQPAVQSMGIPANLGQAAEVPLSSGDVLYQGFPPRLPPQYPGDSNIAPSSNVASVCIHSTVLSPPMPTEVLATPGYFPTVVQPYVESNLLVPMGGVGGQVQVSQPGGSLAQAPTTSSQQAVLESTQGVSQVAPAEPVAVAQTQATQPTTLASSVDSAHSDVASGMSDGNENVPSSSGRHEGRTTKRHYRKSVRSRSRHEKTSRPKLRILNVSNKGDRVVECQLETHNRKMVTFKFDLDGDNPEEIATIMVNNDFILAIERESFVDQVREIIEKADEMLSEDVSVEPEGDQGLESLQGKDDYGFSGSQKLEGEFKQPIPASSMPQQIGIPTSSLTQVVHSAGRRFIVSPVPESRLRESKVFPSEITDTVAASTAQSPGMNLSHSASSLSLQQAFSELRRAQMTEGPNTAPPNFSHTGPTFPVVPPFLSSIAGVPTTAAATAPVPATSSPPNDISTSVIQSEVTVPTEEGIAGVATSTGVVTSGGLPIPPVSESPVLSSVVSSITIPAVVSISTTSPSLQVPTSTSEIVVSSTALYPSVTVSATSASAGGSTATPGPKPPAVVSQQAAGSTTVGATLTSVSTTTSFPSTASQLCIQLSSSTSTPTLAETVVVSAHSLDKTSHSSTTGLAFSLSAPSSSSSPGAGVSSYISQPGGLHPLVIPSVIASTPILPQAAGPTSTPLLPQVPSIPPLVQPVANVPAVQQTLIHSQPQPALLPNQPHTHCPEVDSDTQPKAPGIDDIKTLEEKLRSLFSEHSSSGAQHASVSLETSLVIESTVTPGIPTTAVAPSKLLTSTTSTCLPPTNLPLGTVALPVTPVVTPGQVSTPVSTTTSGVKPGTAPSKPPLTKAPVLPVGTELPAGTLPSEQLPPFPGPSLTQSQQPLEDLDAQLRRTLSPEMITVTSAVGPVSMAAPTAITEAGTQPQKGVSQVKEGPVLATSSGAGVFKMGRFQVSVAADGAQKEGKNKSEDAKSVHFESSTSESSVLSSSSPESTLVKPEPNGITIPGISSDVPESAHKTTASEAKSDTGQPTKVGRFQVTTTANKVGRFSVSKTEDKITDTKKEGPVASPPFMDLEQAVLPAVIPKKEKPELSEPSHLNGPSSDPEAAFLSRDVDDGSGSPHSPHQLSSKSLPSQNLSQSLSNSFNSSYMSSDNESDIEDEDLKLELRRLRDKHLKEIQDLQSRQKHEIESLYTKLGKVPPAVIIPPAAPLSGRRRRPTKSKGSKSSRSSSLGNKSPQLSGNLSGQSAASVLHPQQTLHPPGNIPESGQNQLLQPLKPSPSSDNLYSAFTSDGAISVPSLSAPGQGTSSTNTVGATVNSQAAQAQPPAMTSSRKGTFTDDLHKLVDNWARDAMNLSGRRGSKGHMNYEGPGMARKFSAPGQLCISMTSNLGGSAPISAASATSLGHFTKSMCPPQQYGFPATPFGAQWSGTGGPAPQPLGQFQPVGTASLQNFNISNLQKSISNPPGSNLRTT
Sequence of Proto-oncogene tyrosine-protein kinase Src (Homo sapiens) (P12931 2-536 limits assumed): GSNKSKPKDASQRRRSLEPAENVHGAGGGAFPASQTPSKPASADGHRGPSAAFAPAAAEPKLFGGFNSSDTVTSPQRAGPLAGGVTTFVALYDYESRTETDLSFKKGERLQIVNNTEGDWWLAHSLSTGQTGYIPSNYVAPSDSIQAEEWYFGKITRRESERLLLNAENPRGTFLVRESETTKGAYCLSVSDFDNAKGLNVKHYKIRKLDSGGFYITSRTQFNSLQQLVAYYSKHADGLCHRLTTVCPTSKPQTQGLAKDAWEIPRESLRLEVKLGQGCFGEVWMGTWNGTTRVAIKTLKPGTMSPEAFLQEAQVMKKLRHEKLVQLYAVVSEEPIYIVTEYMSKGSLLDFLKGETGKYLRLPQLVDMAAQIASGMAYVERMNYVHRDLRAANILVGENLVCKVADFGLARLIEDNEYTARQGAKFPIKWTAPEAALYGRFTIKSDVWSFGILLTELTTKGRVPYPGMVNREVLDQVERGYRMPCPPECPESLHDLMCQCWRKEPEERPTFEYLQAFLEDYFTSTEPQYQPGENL
Sequence of Ribosomal protein S6 kinase beta-1 (Homo sapiens) (P23443 whole entry, looked up): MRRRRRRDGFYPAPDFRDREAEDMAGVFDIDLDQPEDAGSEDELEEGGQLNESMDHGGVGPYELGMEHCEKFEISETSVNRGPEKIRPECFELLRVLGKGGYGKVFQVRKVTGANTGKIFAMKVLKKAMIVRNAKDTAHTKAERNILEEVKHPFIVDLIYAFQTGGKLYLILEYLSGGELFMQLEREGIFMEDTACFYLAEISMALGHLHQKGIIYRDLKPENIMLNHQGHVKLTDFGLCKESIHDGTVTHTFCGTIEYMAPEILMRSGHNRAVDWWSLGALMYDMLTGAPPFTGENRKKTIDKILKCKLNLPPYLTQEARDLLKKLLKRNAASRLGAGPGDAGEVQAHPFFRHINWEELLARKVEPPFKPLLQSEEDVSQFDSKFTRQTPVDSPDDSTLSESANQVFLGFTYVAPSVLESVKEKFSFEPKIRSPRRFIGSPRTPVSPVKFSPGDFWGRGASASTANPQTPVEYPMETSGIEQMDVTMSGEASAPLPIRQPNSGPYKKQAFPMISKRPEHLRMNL
Sequence of Calcium/calmodulin-dependent protein kinase type 1G (Homo sapiens) (Q96NX5 whole entry): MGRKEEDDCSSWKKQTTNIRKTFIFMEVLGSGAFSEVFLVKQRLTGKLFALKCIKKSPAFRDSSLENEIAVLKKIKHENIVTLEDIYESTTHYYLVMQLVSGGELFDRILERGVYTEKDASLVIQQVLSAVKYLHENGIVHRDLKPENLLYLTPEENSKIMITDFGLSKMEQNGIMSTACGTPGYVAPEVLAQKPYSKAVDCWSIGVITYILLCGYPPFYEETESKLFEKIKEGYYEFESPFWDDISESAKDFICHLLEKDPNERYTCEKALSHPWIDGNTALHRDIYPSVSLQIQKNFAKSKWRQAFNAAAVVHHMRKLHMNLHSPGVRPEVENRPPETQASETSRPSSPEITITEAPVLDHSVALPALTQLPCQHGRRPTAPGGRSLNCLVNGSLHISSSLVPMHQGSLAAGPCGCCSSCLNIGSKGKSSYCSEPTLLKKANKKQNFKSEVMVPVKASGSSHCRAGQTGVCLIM

With `COc1cc2nc(C)nc(N[C@H](C)c3cccc(-c4cn[nH]c4)c3)c2cc1OC`, the Activity is 89% in experiment [1]; 86% in [2]; 97% in experiment [3]; 100% in experiment [4]; 67% in experiment [5]; 78% in experiment [6]. For the same molecule, the Activity worked out at 94% in experiment [7], 78% in experiment [8] and 99% in [9].
As for `COc1cc2ncnc(N[C@H](C)c3cccc4ccccc34)c2cc1OC`, the Activity in experiment [1] was found to be 98%; in [2], 100%; in experiment [3], 96%; in experiment [4], 98%; in experiment [5], 80%; in experiment [6], 100%. The results for the Activity in experiment [7], in experiment [8] and in [9] were 99%, 91% and 90%, respectively.

For the origin of these results see ChEMBL document CHEMBL5678818, “Discovery of potent SOS1 inhibitors that block RAS activation via disruption of the RAS-SOS1 interaction” (Proc Natl Acad Sci U S A, 2019).
